Reference: patent EP0934745B1, “Use of androsterone derivatives for inhibiting DNA binding of ap-1 and airway smooth muscle proliferation” (CHARLOTTE-MECKLENBURG HOSPITAL doing business as Carolinas …, priority 1998, dated 1999)

Tested on: rat tracheal smooth muscle
Experiment: Proliferation of cultured airway smooth muscle (MTT reduction, cell counts)
Type: cell-based
Details: for growth inhibition by direct visual count of stained cells: 10% FBS, 15,000 cells/well cultured for 24 hours (Figure 4A); for inhibition of FBS-induced cell proliferation (comparison in words): 10% FBS, 15,000 cells/well, 92-96 hours, MTT (Figures 3A, 3C)
Method: Polyclonal horseradish peroxidase anti-rabbit IgG was from Transduction Laboratories (Lexington, KY). M-MLV reverse transcriptase was from Life Technologies (Gaithersburg, MD). All other materials were obtained from Sigma unless specified. Measurement of Cultured Airway Smooth Muscle Proliferation. Rat tracheal smooth muscle was cultured by euthanizing rats with pentobarbital overdose and removal of their tracheas. The posterior tracheal membrane was isolated, minced and digested twice for 30 minutes at 37°C. in HBSS containing 0.2% type IV collagenase and 0.05% type IV elastase. Each enzyme digest was collected and centrifuged for 5 minutes at 500 g at room temperature. The supernatant was removed and the pellet was resuspended in DMEM supplemented with 10% FBS, nonessential amino acids, penicillin (100 U/ml), streptomycin (100 µg/ml) and amphotericin (250 ng/ml). Cells were seeded in this medium into 25-cm^2 flasks at 2 x 10^5 cells per flask and incubated in a humidified atmosphere of 5% CO2/95% air at 37°C. Upon reaching confluence, cells were detached with 0.25% trypsin-0.002% EDTA solution for passage.
Proliferation of cultured airway smooth muscle was quantitated using modification of a previously reported colorimetric method based upon metabolic reduction of the soluble yellow tetrazolium dye 3-[4,5-dimethylthiazol]-2yl-2,5-diphenyl tetrazolium bromide (MTT) to its insoluble purple formazan by the action of mitochondrial succinyl dehydrogenase. See Hirst, S.J., Barnes, P.J., and Twort, C.H.C., "Quantifying proliferation of cultured human and rabbit airway smooth muscle in response to serum and platelet derived growth factor," Am. J. Respir. Cell Mol. Biol., 7, 574-581 (1992). This assay empirically distinguishes between dead and living cells. For proliferation studies, cells were seeded into 24-well uncoated plastic plates at 15,000-50,000 cells per well and cultured with DMEM and mitogens. After 24-96 hours the medium was replaced with 1 ml/well fresh DMEM containing 100 µg/ml MTT and 0.5% FBS, and plates were incubated an additional hour MTT-containing medium was removed, cells were washed twice with 1 ml of sterile Dulbecco's modified phosphate buffered saline without Ca^2+ or Mg^2+ (DPBS), 0.5 ml dimethylsulfoxide (DMSO) was added to each well, and the absorbance of the solubilized purple formazan dye was measured at 540 nm on a Shimadzu UV160U spectrophotometer. A total of 4-6 wells was studied at each treatment condition.
The optimum concentration of FBS for use as a mitogenic stimulus was determined by incubating 15,000 cells per well with DMEM containing 0.25, 1.0, 5.0 or 10.0% FBS and MTT reduction was determined after 24, 48, 72 or 96 hours. […] After 24 hours, cells were washed twice with DPBS, fixed and permeabilized by two sequential 5 minute exposures to ice-cold methanol, stained with Giemsa-modified Wright's stain for 3 minutes and washed with DPBS. Cell counts were performed on 10 random fields at 40 power using a 0.01-cm^2 ocular grid. Cell Culture Treatments for Measurement of Airway Smooth Muscle Proliferation. The effect of dehydroepiandrosterone (DHEA) and 16α-bromoepiandrosterone (16α-BrEA) on cellular proliferation was studied in cultures stimulated with 0.5-10% FBS or 1-50 ng/ml recombinant human platelet derived growth factor (PDGF-AA). […] See, for example, the method of Le, Y. Y. , and Xu, R.B., "The molecular mechanism of the action of the pharmacological doses of glucocorticoids. Studies on the low-affinity glucocorticoid receptor," Receptor, 5, 63-69 (1995).

Row | Compound | growth inhibition by direct visual count of stained cells | inhibition of FBS-induced cell proliferation (comparison in words) | IC50 (Rattus norvegicus, 48 h, read-out: 50% inhibitory concentration) [µM] | cell proliferation stimulated by PDGF (50 ng/ml PDGF, 50,000 cells/well cultured for 72 hours, MTT (Figure 3B))
1 | C[C@]12CC[C@H](O)C[C@@H]1CC[C@@H]1[C@@H]2CC[C@]2(C)C(=O)[C@H](Br)C[C@@H]12 [16α-BrEA, 16α-bromoepiandrosterone] | confirmed by cell counts | even more potent inhibitor of FBS-induced cell proliferation than DHEA | 7.5 | –
2 | C[C@]12CC[C@H](O)CC1=CC[C@@H]1[C@@H]2CC[C@]2(C)C(=O)CC[C@@H]12 [DHEA, dehydroepiandrosterone] | confirmed by cell counts | more active than DHEA-sulfate at high concentrations | – | inhibites cell proliferation
